Experimental data taken from ChEMBL document CHEMBL1817600, “Design, synthesis, and biological evaluation of imidazoline derivatives as p53-MDM2 binding inhibitors” (Bioorg Med Chem, 2011).

Columns and labels:
[1] = molecular target: Tumour suppressor p53/oncoprotein Mdm2 (Homo sapiens, UniProt Q00987); experiment: (§1) Inhibition of p53-MDM2 expressed in Escherichia coli BL-21 (DE3) after 1 hr by fluorescence polarization competitive binding assay
[2] = molecular target: Tumour suppressor p53/oncoprotein Mdm2 (Homo sapiens, UniProt P04637+Q00987); experiment: as §1
PC-3 = experiment: Antiproliferative activity against p53 deficient human PC3 cells after 72 hrs by MTT assay; settings: PC-3, 72 h
HCT-116 = experiment: Antiproliferative activity against human HCT116 cells expressing wild type p53 after 72 hrs by MTT assay
A549 [3] = experiment: Antiproliferative activity against human A549 cells expressing wild type p53 after 72 hrs by MTT assay; settings: A549, 72 h
A549 [4] = experiment: Cell cycle arrest in human A549 cells expressing wild type p53 assessed as accumulation at G0/G1 phase at 10 uM after 72 hrs using propidium iodide staining by flow cytometric analysis (reference value: 73.28%); format: functional
A549 [5] = experiment: Cell cycle arrest in human A549 cells expressing wild type p53 assessed as accumulation at G2/M phase at 10 uM after 72 hrs using propidium iodide staining by flow cytometric analysis (reference value: 7.49%); format: functional
A549 [6] = experiment: Cell cycle arrest in human A549 cells expressing wild type p53 assessed as accumulation at S phase at 10 uM after 72 hrs using propidium iodide staining by flow cytometric analysis (reference value: 19.23%); format: functional
KB = experiment: Antiproliferative activity against human KB cells expressing p53 mutant after 72 hrs by MTT assay; format: functional, cell-based

Chain of Tumour suppressor p53/oncoprotein Mdm2 (Homo sapiens, UniProt Q00987) (P04637 whole entry): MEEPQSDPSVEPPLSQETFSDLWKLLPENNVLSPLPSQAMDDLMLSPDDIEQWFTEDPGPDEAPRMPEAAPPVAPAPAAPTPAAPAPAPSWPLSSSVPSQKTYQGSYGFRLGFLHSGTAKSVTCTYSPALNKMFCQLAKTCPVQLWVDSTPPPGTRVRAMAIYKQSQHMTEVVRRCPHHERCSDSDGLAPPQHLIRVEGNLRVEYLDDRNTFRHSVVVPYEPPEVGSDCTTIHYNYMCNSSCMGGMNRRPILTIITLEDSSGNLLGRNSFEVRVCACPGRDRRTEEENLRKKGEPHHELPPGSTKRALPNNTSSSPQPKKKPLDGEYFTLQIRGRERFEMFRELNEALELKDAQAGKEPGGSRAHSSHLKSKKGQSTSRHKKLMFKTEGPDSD
Chain of Tumour suppressor p53/oncoprotein Mdm2 (Homo sapiens, UniProt Q00987) (Q00987 whole entry): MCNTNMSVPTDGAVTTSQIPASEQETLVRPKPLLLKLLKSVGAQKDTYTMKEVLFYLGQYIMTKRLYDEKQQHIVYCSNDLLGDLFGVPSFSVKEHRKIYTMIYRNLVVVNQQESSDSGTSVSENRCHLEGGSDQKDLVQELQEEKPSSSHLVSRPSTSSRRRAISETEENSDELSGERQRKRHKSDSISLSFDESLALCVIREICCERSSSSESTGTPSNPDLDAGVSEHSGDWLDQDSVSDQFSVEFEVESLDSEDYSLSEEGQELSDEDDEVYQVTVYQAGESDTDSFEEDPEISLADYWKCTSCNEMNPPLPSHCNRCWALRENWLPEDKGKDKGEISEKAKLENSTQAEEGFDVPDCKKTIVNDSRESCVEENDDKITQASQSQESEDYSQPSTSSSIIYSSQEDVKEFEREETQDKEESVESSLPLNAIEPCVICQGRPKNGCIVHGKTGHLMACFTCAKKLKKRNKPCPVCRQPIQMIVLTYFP
Chain of Tumour suppressor p53/oncoprotein Mdm2 (Homo sapiens, UniProt P04637+Q00987) (P04637 whole entry): as the sequence (P04637 whole entry) above
Chain of Tumour suppressor p53/oncoprotein Mdm2 (Homo sapiens, UniProt P04637+Q00987) (Q00987 whole entry): as the sequence (Q00987 whole entry) above

`COc1ccc(C2=NC(c3ccc(Cl)cc3)C(c3ccc(Cl)cc3)N2C(=O)N2CCC(C(=O)O)CC2)c(OC(C)C)c1` (configuration not stated) showed a Ki [1] of 8.77 µM.

With `COc1ccc(C2=NC(c3ccc(C(F)(F)F)cc3)C(c3ccc(C(F)(F)F)cc3)N2C(=O)N2CCN(C(C)=O)CC2)c(OC(C)C)c1` (configuration not stated) the Ki [2] was “Not Active”.

For `COCCOC(=O)N1C(c2ccc(OC)cc2OC(C)C)=NC(c2ccc(Cl)cc2)C1c1ccc(Cl)cc1` (configuration not stated), the Ki [1] was 2.3 µM.

For `CCC1=NC(c2ccc(Cl)cc2)C(c2ccc(Cl)cc2)N1C(=O)NCC(=O)N1CCOCC1` (configuration not stated), the Ki [2] was “Not Active”.

In the case of `CCN(CC)CCC(=O)N1C(c2ccc(OC)cc2OC(C)C)=NC(c2ccc(Cl)cc2)C1c1ccc(Cl)cc1` (configuration not stated), the IC50 (PC-3) is reported as 3.32 µM, the IC50 (HCT-116; Homo sapiens, HCT-116, 72 h) is reported as 3.73 µM and the Ki [1] is reported as 1.22 µM. The IC50 (A549 [3]) was 3.82 µM.

In the case of `CCC1=NC(c2ccc(Cl)cc2)C(c2ccc(Cl)cc2)N1C(=O)Nc1ccc(N2CCCC2)cc1` (configuration not stated), the Ki [2] is reported as “Not Active”.

`COc1ccc(C2=NC(c3ccc(Cl)cc3)C(c3ccc(Cl)cc3)N2C(=O)N(C)C)c(OC(C)C)c1` (configuration not stated) was tested, and the Ki [1] was 3.32 µM.

`COc1ccc(C2=NC(c3ccc(Cl)cc3)C(c3ccc(Cl)cc3)N2C(=O)CN2CCOCC2)c(OC(C)C)c1` (configuration not stated) was tested, and the Ki [1] was 2.64 µM.

In the case of `COc1ccc(C2=NC(c3ccc(Cl)cc3)C(c3ccc(Cl)cc3)N2C(=O)OCCNC(C)=O)c(OC(C)C)c1` (configuration not stated), the Activity (A549 [4]) is reported as 61.67%, the Activity (A549 [5]) is reported as 30.93% and the IC50 (PC-3) is reported as 33.1 µM. The IC50 (HCT-116; Homo sapiens, HCT-116, 72 h) was 5.81 µM, the Ki [1] was 0.6 µM and the IC50 (A549 [3]) was 9.1 µM. For the same molecule, the Activity (A549 [6]) was 7.4% and the IC50 (KB) was 3.6 µM.

`COc1ccc(C2=NC(c3ccc(Cl)cc3)C(c3ccc(Cl)cc3)N2C(=O)NCC(=O)N2CCOCC2)c(OC(C)C)c1` (configuration not stated) was tested, and the IC50 (PC-3) was 14.3 µM, the IC50 (HCT-116; Homo sapiens, HCT-116, 72 h) was 10.9 µM and the Ki [1] was 0.48 µM. For the same molecule, the IC50 (A549 [3]) was 8.29 µM and the IC50 (KB) was 7.39 µM.

With `CCN(CC)CC(=O)N1C(c2ccc(OC)cc2OC(C)C)=NC(c2ccc(Cl)cc2)C1c1ccc(Cl)cc1` (configuration not stated) the Ki [2] was “Not Active”.

`COc1ccc(C2=NC(c3ccc(Cl)cc3)C(c3ccc(Cl)cc3)N2C(=O)OCc2ccccc2)c(OC(C)C)c1` (configuration not stated) was tested, and the Ki [1] was 32.4 µM.

With `COc1ccc(C2=NC(c3ccc(Cl)cc3)C(c3ccc(Cl)cc3)N2C(=O)N2CCN(C(C)=O)CC2)c(OC(C)C)c1` (configuration not stated) the Activity (A549 [4]) was 66.95%, the Activity (A549 [5]) was 19.27% and the IC50 (PC-3) was 29.2 µM. It also gave an IC50 (HCT-116; Homo sapiens, HCT-116, 72 h) of 4.58 µM, an IC50 (A549 [3]) of 2.33 µM and an Activity (A549 [6]) of 13.78%. For the same molecule, the IC50 (KB) was 35.2 µM.

With `COc1ccc(C2=NC(c3ccc(Cl)cc3)C(c3ccc(Cl)cc3)N2C(=O)OCCN(C)C)c(OC(C)C)c1` (configuration not stated) the IC50 (PC-3) was 11 µM, the IC50 (HCT-116; hct-116) was “Not Active” and the Ki [1] was 0.57 µM. The IC50 (A549 [3]) was 10.8 µM and the IC50 (KB) was 8.27 µM.

In the case of `COc1ccc(C2=NC(c3ccccc3)C(c3ccccc3)N2C(=O)CN2CCN(C)CC2)c(OC(C)C)c1` (configuration not stated), the Ki [2] is reported as “Not Active”.

For `CCOCCOC(=O)N1C(c2ccc(OC)cc2OC(C)C)=NC(c2ccc(Cl)cc2)C1c1ccc(Cl)cc1` (configuration not stated), the Ki [1] was 1.38 µM.

In the case of `CCC1=NC(c2ccc(Cl)cc2)C(c2ccc(Cl)cc2)N1C(=O)N(CC)CC` (configuration not stated), the Ki [2] is reported as “Not Active”.

For `COc1ccc(C2=NC(c3ccc(Cl)cc3)C(c3ccc(Cl)cc3)N2C(=O)CCN2CCN(C)CC2)c(OC(C)C)c1` (configuration not stated), the IC50 (PC-3) was 8.44 µM, the IC50 (HCT-116; Homo sapiens, HCT-116, 72 h) was 5.4 µM and the Ki [1] was 0.9 µM. It also gave an IC50 (A549 [3]) of 3.19 µM and an IC50 (KB) of 5.81 µM.

With `CCC1=NC(c2ccc(Cl)cc2)C(c2ccc(Cl)cc2)N1C(=O)N1CCN(C)CC1` (configuration not stated) the Ki [2] was “Not Active”.

For `COc1ccc(C2=NC(c3ccc(Cl)cc3)C(c3ccc(Cl)cc3)N2C(=O)CN2CCCCC2)c(OC(C)C)c1` (configuration not stated), the Ki [1] was 82.1 µM.

With `CCN(CC)CC(=O)N1C(c2ccc(OC)cc2OC(C)C)=NC(c2ccccc2)C1c1ccccc1` (configuration not stated) the Ki [2] was “Not Active”.

In the case of `COc1ccc(C2=NC(c3ccc(C(F)(F)F)cc3)C(c3ccc(C(F)(F)F)cc3)N2C(=O)CN2CCN(C(C)=O)CC2)c(OC(C)C)c1` (configuration not stated), the Ki [2] is reported as “Not Active”.

Work on `COc1ccc(C2=NC(c3ccc(Cl)cc3)C(c3ccc(Cl)cc3)N2C(=O)CN2CCN(C)CC2)c(OC(C)C)c1` (configuration not stated) yielded a Ki [1] of 25.8 µM.

`COc1ccc(C2=NC(c3ccc(Cl)cc3)C(c3ccc(Cl)cc3)N2C(=O)CCN2CCOCC2)c(OC(C)C)c1` (configuration not stated) showed an IC50 (PC-3) of 2.74 µM, an IC50 (HCT-116; Homo sapiens, HCT-116, 72 h) of 7.57 µM and a Ki [1] of 1.3 µM. For the same molecule, the IC50 (A549 [3]) was 3.82 µM.

With `COc1ccc(C2=NC(c3ccc(Cl)cc3)C(c3ccc(Cl)cc3)N2C(=O)N2CCOCC2)c(OC(C)C)c1` (configuration not stated) the Ki [1] was 4.07 µM.

In the case of `CCOC(=O)CN(C)C(=O)N1C(c2ccc(OC)cc2OC(C)C)=NC(c2ccc(Cl)cc2)C1c1ccc(Cl)cc1` (configuration not stated), the Ki [1] is reported as 1.59 µM.
